According to patent US20120040966A1, “ANTI-VIRAL COMPOUNDS, TREATMENT, AND ASSAY” (priority 2008, published 2012):
Where two headings read alike, the source gives them in different places.

Legend:
[1] = system: influenza strain A/VN/1203/2004 (H5N1); test: microbe, parasite or virus in culture; format: cell-based, Influenza A virus (H5N1)
[2] = system: Madin Darby Canine Kidney (MDCK) cells; test: cells; format: cell-based; details: read-out: IC50 (toxicity)
[3] = Influenza A virus, H5N1, MDCK, 72 h, read-out: H5N1 EC50 (@ 50% Via)
[4] = Influenza A virus, H5N1, MDCK, 72 h, read-out: H5N1 EC50 (Inf Pt)
[5] = read-out: H5N1 EC50 (@ 50% Via)

Row | Structure (SMILES) | EC50 [1, 3] [µM] | EC50 [1, 4] [µM] | IC50 ([2]; Canis lupus familiaris, MDCK) [µM] | EC50 [1, 5] [µM] | IC50 [2] [µM] | EC50 ([1]; read-out: H5N1 EC50 (Inf Pt)) [µM]
1 | O=C1NC2=C(CCc3ccccc32)C(c2cc(Br)c(O)c(Br)c2)N1 (stereo not shown) [compound 22702] | > 40 | > 40 | > 40 | – | – | –
2 | O=C1NC2=C(CCc3ccccc32)C(c2cccc3c2OCO3)N1 (stereo not shown) [compound 22411] | > 50 | > 50 | > 50 | – | – | –
3 | COc1ccc(C2NC(=O)Nc3c2cnc2ccccc32)cc1Br (stereo not shown) [compound 23273] | 2.1 | 1.6 | > 40 | – | – | –
4 | Cc1cccc(C2NC(=O)NC3=C2CCCc2ccccc23)c1 (stereo not shown) [compound 22345] | 18.8 | 13.6 | > 50 | – | – | –
5 | CCN(CC)CC(=O)N1CC2=C(NC(=O)NC2c2ccc(OC)c(Br)c2)c2ccccc21 (stereo not shown) [compound 24719] | 1.2 | 1.2 | > 40 | – | – | –
6 | COc1cc(C2NC(=O)NC3=C2CCc2ccccc23)ccc1O (stereo not shown) [compound 22408] | > 50 | > 50 | > 50 | – | – | –
7 | COc1cc(C2NC(=O)NC3=C2CCc2ccccc23)cc(OC)c1OC (stereo not shown) [compound 22115] | > 50 | > 50 | > 50 | – | – | –
8 | COc1cccc2c1CCc1c(-c3ccc(C)cc3)nc(O)nc1-2 [compound 22124] | – | > 50 | – | > 50 | > 50 | –
9 | COc1ccc(C2NC(=O)NC3=C2Cc2ccccc23)cc1 (stereo not shown) [compound 22127] | > 50 | > 50 | > 50 | – | – | –
10 | CCOC(=O)N1CC2=C(NC(=O)NC2c2ccc(OC)c(Br)c2)c2ccccc21 (stereo not shown) [compound 25577] | > 20 | > 20 | – | – | – | –
11 | Cn1c2c(c(-c3ccc4c(c3)OCO4)nc1=O)CCc1ccccc1-2 [compound 22403] | 5.2 | 1.7 | > 50 | 5.7 | – | 2
12 | COc1ccc(C2NC(=O)NC3=C2CCN(C(=O)CO)c2ccccc23)cc1Br (stereo not shown) [28001A] | > 20 | – | – | – | – | –
13 | O=C1NC2=C(CCc3ccccc32)C(c2ccc3ccccc3c2)N1 (stereo not shown) [compound 22346] | ≥ 55 | > 50 | > 50 | – | – | –
14 | Oc1nc(-c2ccc3c(c2)OCO3)c2c(n1)-c1ccccc1CC2 [compound 22085] | – | – | > 50 | < 0.48 | – | –
15 | Nc1ccc(C2NC(=O)NC3=C2CCc2ccccc23)cc1 (stereo not shown) [compound 22350] | 30.6 | 17.9 | > 50 | – | – | –
16 | COc1cccc(-c2nc(O)nc3c2COc2ccccc2-3)c1 [compound 22108] | > 50 | > 50 | > 50 | – | – | –

Row | Structure (SMILES) | EC50 [1, 3] [µM] | EC50 [1, 4] [µM] | IC50 ([2]; Canis lupus familiaris, MDCK) [µM] | EC50 [1, 5] [µM] | IC50 [2] [µM] | EC50 ([1]; read-out: H5N1 EC50 (Inf Pt)) [µM]
17 | COc1ccc(C2NC(=O)NC3=C2CN(S(C)(=O)=O)c2ccccc23)cc1Br (stereo not shown) [compound 23207] | 29 | 31 | > 40 | – | – | –
18 | Oc1nc(-c2ccc3c(c2)OCO3)c2c(n1)-c1ccccc1CC2 [compound 22122] | – | > 50 | – | > 50 | > 50 | –
19 | Oc1nc(-c2ccc3c(c2)OCO3)c2c(n1)-c1ccccc1OC2c1ccccc1 (stereo not shown) [compound 22422] | > 50 | > 50 | > 50 | – | – | –
20 | COc1ccc(-c2nc(O)nc3c2Cc2ccccc2-3)cc1 [compound 22128] | > 50 | > 50 | > 50 | – | – | –
21 | COc1ccc(C2NC(=O)NC3=C2CN(C(=O)OCCO)c2ccccc23)cc1Br (stereo not shown) [compound 25575] | 4.7 | – | – | – | – | –
22 | COCCOC(=O)N1CC2=C(NC(=O)NC2c2ccc(OC)c(Br)c2)c2ccccc21 (stereo not shown) [compound 25576] | > 20 | – | – | – | – | –
23 | COc1ccc(-c2nc(=O)[nH]c3c2CCc2ccccc2-3)cc1Br [compound 22710] | > 50 | > 50 | > 50 | – | – | –
24 | Cc1ccc(-c2nc(=O)[nH]c3c2Cc2ccccc2-3)cc1 [compound 22084] | > 50 | – | > 50 | – | – | –
25 | COc1ccc2c(c1)CCC1=C2NC(=O)NC1c1ccc2c(c1)OCO2 (stereo not shown) [compound 22344] | > 50 | > 50 | > 50 | – | – | –
26 | COc1cc(C2NC(=O)NC3=C2CSc2ccccc23)ccc1F (stereo not shown) [compound 22519] | – | 6.5 | > 50 | – | – | –
27 | COc1cc(-c2nc(O)nc3c2CCc2ccccc2-3)cc(OC)c1OC [compound 22116] | > 50 | > 50 | > 50 | – | – | –
28 | COc1ccc(C2NC(=O)NC3=C2CSc2ccccc23)cc1F (stereo not shown) [compound 22523] | 0.76 | 0.55 | > 50 | – | – | –
29 | Cc1ccc(C2NC(=O)NC3=C2CCc2ccccc23)cc1C (stereo not shown) [compound 22082] | – | – | > 50 | – | – | –
30 | CCOC(=O)CCC(=O)N1CC2=C(NC(=O)NC2c2ccc(OC)c(Br)c2)c2ccccc21 (stereo not shown) [compound 25578] | – | > 10 | – | > 20 | – | –
31 | Nc1nc(-c2ccc3c(c2)OCO3)c2c(n1)-c1ccccc1CC2 [compound 22120] | > 50 | > 50 | > 50 | – | – | –
